Laboratory results reported in US11058678B2 (Enanta Pharmaceuticals, Inc., priority 2018, dated 2021).

Tests used:
[1] = Compound induced cellular toxicity in HepG2 cells (ATPlite 1 Step); format: cell-based; conditions: human, three days, 50% reduction of total ATP levels vs no drug controls
Description: At day 3, post seeding cells are treated with ATPlite 1 Step according to the manufacturer's instructions.

[2] = system: HBV (2.2.15 cells); assay: Antiviral activity in 2.2.15 cells: reduction of viral product accumulation (qPCR of lysates, HBsAg or HBeAg ELISA); format: cell-based, hepatitis B virus (HBV); conditions: Hepatitis B virus, 120 h, day 5 post treatment, 50% reduction of viral product accumulation in lysates or supernatants vs no drug controls, readout (qPCR, HBsAg, HBeAg) not specified
Outline: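 HBV-producing 2.2.15 cells, 35,000/well, treated with 5-fold serial compound dilutions at 0.5% final DMSO for 5 days. Lysate HBV DNA by qPCR or supernatant HBsAg/HBeAg by ELISA; EC50 is 50% reduction versus no-drug control, binned A<0.1 μM, B 0.1-1 μM, C>1 μM.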

**Q.** What does the source list for CC(C)(C)[C@@H]1Cc2c(cc(-c3ccccc3)c3c2CCO3)-c2cc(=O)c(C(=O)O)cn21 [Example 67, (S)-5-(tert-butyl)-9-oxo-12-phenyl-2,3,4,9-tetrahydro-5H-furo[3,2-f]pyrido[2,1-a]isoquinoline-8-carboxylic Acid]?
**A.** CC50 at 3 days [1]: < 10000 nM; EC50 [2]: < 100 nM

**Q.** With COCCCOc1cc2c(cc1-c1ccc(OC)cc1)-c1cc(=O)c(C(=O)O)cn1[C@H](C(C)(C)C)C2 [Example 17, (S)-6-(tert-butyl)-10-(4-methoxyphenyl)-9-(3-methoxypropoxy)-2-oxo-6,7-dihydro-2H-pyrido[2,1-a]isoquinoline-3-carboxylic Acid] as the molecule, how does the CC50 at 3 days [1] read?
**A.** 10000 to 25000 nM

**Q.** And the EC50 [2]?
**A.** < 100 nM

**Q.** What does the source list for COCCCOc1cc2c(cc1-c1ccoc1)-c1cc(=O)c(C(=O)O)cn1[C@H](C(C)(C)C)C2 [Example 2, (S)-6-(tert-butyl)-10-(furan-3-yl)-9-(3-methoxypropoxy)-2-oxo-6,7-dihydro-2H-pyrido[2,1-a]isoquinoline-3-carboxylic Acid]?
**A.** CC50 at 3 days [1]: > 25000 nM; EC50 [2]: < 100 nM

**Q.** With COCCCOc1cc2c(cc1-c1ccoc1)-c1cc(=O)c(C(=O)O)cn1[C@H]1[C@@H]2CCC1(C)C [Example 60, (3aS,12bR)-10-(furan-3-yl)-11-(3-methoxypropoxy)-3,3-dimethyl-7-oxo-1,2,3,3a,7,12b-hexahydrocyclopenta[c]pyrido[2,1-a]isoquinoline-6-carboxylic Acid] as the molecule, how does the CC50 at 3 days [1] read?
**A.** 10000 to 25000 nM

**Q.** And the EC50 [2]?
**A.** < 100 nM

**Q.** With COCCCOc1cc2c(cc1C1=COCC1)-c1cc(=O)c(C(=O)O)cn1[C@H](C(C)(C)C)C2 [Example 46, (S)-6-(tert-butyl)-10-(4,5-dihydrofuran-3-yl)-9-(3-methoxypropoxy)-2-oxo-6,7-dihydro-2H-pyrido[2,1-a]isoquinoline-3-carboxylic Acid] as the molecule, how does the CC50 at 3 days [1] read?
**A.** > 25000 nM

**Q.** And the EC50 [2]?
**A.** < 100 nM

**Q.** Which results are given for COCCCOc1cc2c(cc1-c1nc3ccccc3o1)-c1cc(=O)c(C(=O)O)cn1[C@H](C(C)(C)C)C2 [Example 25, (S)-10-(benzo[d]oxazol-2-yl)-6-(tert-butyl)-9-(3-methoxypropoxy)-2-oxo-6,7-dihydro-2H-pyrido[2,1-a]isoquinoline-3-carboxylic Acid]?
**A.** CC50 at 3 days [1]: > 25000 nM; EC50 [2]: 100 to 1000 nM

**Q.** Which CC50 at 3 days [1] does the source give for COCCCOc1cc2c(cc1-c1cccc(F)c1F)-c1cc(=O)c(C(=O)O)cn1[C@H](C(C)(C)C)C2 [Example 23, (S)-6-(tert-butyl)-10-(2,3-difluorophenyl)-9-(3-methoxypropoxy)-2-oxo-6,7-dihydro-2H-pyrido[2,1-a]isoquinoline-3-carboxylic Acid] here?
**A.** > 25000 nM

**Q.** What about the EC50 [2] of the same molecule?
**A.** 100 to 1000 nM

**Q.** Which CC50 at 3 days [1] does the source give for COCCCOc1cc2c(cc1-c1ccc(F)cc1)-c1cc(=O)c(C(=O)O)cn1[C@H]1[C@@H]2CCC1(C)C [Example 59] here?
**A.** 10000 to 25000 nM

**Q.** What about the EC50 [2] of the same molecule?
**A.** < 100 nM

**Q.** Which results are given for CC(C)(C)[C@@H]1Cc2c(cc(N3CC(F)(F)C3)c3c2CCO3)-c2cc(=O)c(C(=O)O)cn21 [Example 30, (S)-5-(tert-butyl)-12-(3,3-difluoroazetidin-1-yl)-9-oxo-2,3,4,9-tetrahydro-5H-furo[3,2-f]pyrido[2,1-a]isoquinoline-8-carboxylic Acid]?
**A.** CC50 at 3 days [1]: > 25000 nM; EC50 [2]: < 100 nM

**Q.** What does the source list for COCCCOc1cc2c(cc1C1=CCCCO1)-c1cc(=O)c(C(=O)O)cn1[C@H](C(C)(C)C)C2 [Example 29, (S)-6-(tert-butyl)-10-(3,4-dihydro-2H-pyran-6-yl)-9-(3-methoxypropoxy)-2-oxo-6,7-dihydro-2H-pyrido[2,1-a]isoquinoline-3-carboxylic Acid]?
**A.** CC50 at 3 days [1]: > 25000 nM; EC50 [2]: 100 to 1000 nM

**Q.** With COCCCOc1cc2c(cc1-c1sc(C)nc1C)-c1cc(=O)c(C(=O)O)cn1[C@H](C(C)(C)C)C2 [Example 20, (S)-6-(tert-butyl)-10-(2,4-dimethylthiazol-5-yl)-9-(3-methoxypropoxy)-2-oxo-6,7-dihydro-2H-pyrido[2,1-a]isoquinoline-3-carboxylic Acid] as the molecule, how does the CC50 at 3 days [1] read?
**A.** > 25000 nM

**Q.** And the EC50 [2]?
**A.** 100 to 1000 nM

**Q.** What does the source list for COc1cccc(-c2cc3c(c4c2OCC4)C[C@@H](C(C)(C)C)n2cc(C(=O)O)c(=O)cc2-3)c1 [Example 79, (S)-5-(tert-butyl)-12-(3-methoxyphenyl)-9-oxo-2,3,4,9-tetrahydro-5H-furo[3,2-f]pyrido[2,1-a]isoquinoline-8-carboxylic Acid]?
**A.** CC50 at 3 days [1]: < 10000 nM; EC50 [2]: < 100 nM

**Q.** What does the source list for COCCCOc1cc2c(cc1-c1ccc(F)cc1)-c1cc(=O)c(C(=O)O)cn1[C@H](C(C)(C)C)C2 [Example 15, (S)-6-(tert-butyl)-10-(4-fluorophenyl)-9-(3-methoxypropoxy)-2-oxo-6,7-dihydro-2H-pyrido[2,1-a]isoquinoline-3-carboxylic Acid]?
**A.** CC50 at 3 days [1]: 10000 to 25000 nM; EC50 [2]: < 100 nM

**Q.** Which results are given for COCCCOc1cc2c(cc1-c1ccc3c(c1)OCCN3C)-c1cc(=O)c(C(=O)O)cn1[C@H](C(C)(C)C)C2 [Example 24, (S)-6-(tert-butyl)-9-(3-methoxypropoxy)-10-(4-methyl-3,4-dihydro-2H-benzo[b][1,4]oxazin-7-yl)-2-oxo-6,7-dihydro-2H-pyrido[2,1-a]isoquinoline-3-carboxylic Acid]?
**A.** CC50 at 3 days [1]: > 25000 nM; EC50 [2]: 100 to 1000 nM

**Q.** For COCCCOc1cc2c(cc1-c1ccco1)-c1cc(=O)c(C(=O)O)cn1[C@H](C(C)(C)C)C2 [Example 7, (S)-6-(tert-butyl)-10-(furan-2-yl)-9-(3-methoxypropoxy)-2-oxo-6,7-dihydro-2H-pyrido[2,1-a]isoquinoline-3-carboxylic Acid], which CC50 at 3 days [1] is on record?
**A.** > 25000 nM

**Q.** What about the EC50 [2] of the same molecule?
**A.** < 100 nM

**Q.** For CC(C)(C)[C@@H]1Cc2c(cc(-c3ccccc3F)c3c2CCO3)-c2cc(=O)c(C(=O)O)cn21 [Example 66, (S)-5-(tert-butyl)-12-(2-fluorophenyl)-9-oxo-2,3,4,9-tetrahydro-5H-furo[3,2-f]pyrido[2,1-a]isoquinoline-8-carboxylic Acid], which CC50 at 3 days [1] is on record?
**A.** < 10000 nM

**Q.** What about the EC50 [2] of the same molecule?
**A.** < 100 nM

**Q.** For COCCCOc1cc2c(cc1-c1coc3ccccc13)-c1cc(=O)c(C(=O)O)cn1[C@H](C(C)(C)C)C2 [Example 10, (S)-10-(benzofuran-3-yl)-6-(tert-butyl)-9-(3-methoxypropoxy)-2-oxo-6,7-dihydro-2H-pyrido[2,1-a]isoquinoline-3-carboxylic Acid], which CC50 at 3 days [1] is on record?
**A.** > 25000 nM

**Q.** What about the EC50 [2] of the same molecule?
**A.** < 100 nM

**Q.** For COCCCOc1cc2c(cc1-c1ccsc1)-c1cc(=O)c(C(=O)O)cn1[C@H](C(C)(C)C)C2 [Example 5, (S)-6-(tert-butyl)-9-(3-methoxypropoxy)-2-oxo-10-(thiophen-3-yl)-6,7-dihydro-2H-pyrido[2,1-a]isoquinoline-3-carboxylic Acid], which CC50 at 3 days [1] is on record?
**A.** > 25000 nM

**Q.** What about the EC50 [2] of the same molecule?
**A.** < 100 nM

**Q.** Which CC50 at 3 days [1] does the source give for COCCCOc1cc2c(cc1-c1ccc(C)o1)-c1cc(=O)c(C(=O)O)cn1[C@H](C(C)(C)C)C2 [Example 1, (S)-6-(tert-butyl)-9-(3-methoxypropoxy)-10-(5-methylfuran-2-yl)-2-oxo-6,7-dihydro-2H-pyrido[2,1-a]isoquinoline-3-carboxylic Acid] here?
**A.** > 25000 nM

**Q.** And the EC50 [2]?
**A.** < 100 nM

**Q.** For COCCCOc1cc2c(cc1-c1ccccc1F)-c1cc(=O)c(C(=O)O)cn1[C@H](C(C)(C)C)C2 [Example 13, (S)-6-(tert-butyl)-10-(2-fluorophenyl)-9-(3-methoxypropoxy)-2-oxo-6,7-dihydro-2H-pyrido[2,1-a]isoquinoline-3-carboxylic Acid], which CC50 at 3 days [1] is on record?
**A.** 10000 to 25000 nM

**Q.** What about the EC50 [2] of the same molecule?
**A.** < 100 nM

**Q.** What does the source list for COCCCOc1cc2c(cc1-c1cc3ccccc3[nH]1)-c1cc(=O)c(C(=O)O)cn1[C@H](C(C)(C)C)C2 [Example 19, (S)-6-(tert-butyl)-10-(1H-indol-2-yl)-9-(3-methoxypropoxy)-2-oxo-6,7-dihydro-2H-pyrido[2,1-a]isoquinoline-3-carboxylic Acid]?
**A.** CC50 at 3 days [1]: > 25000 nM; EC50 [2]: 100 to 1000 nM

**Q.** Which results are given for CC(C)(C)[C@@H]1Cc2c(cc(-c3cccs3)c3c2CCO3)-c2cc(=O)c(C(=O)O)cn21 [Example 86, (S)-5-(tert-butyl)-9-oxo-12-(thiophen-2-yl)-2,3,4,9-tetrahydro-5H-furo[3,2-f]pyrido[2,1-a]isoquinoline-8-carboxylic Acid]?
**A.** CC50 at 3 days [1]: < 10000 nM; EC50 [2]: < 100 nM

**Q.** Which results are given for COCCCOc1cc2c(cc1-c1cnc3ccccc3c1)-c1cc(=O)c(C(=O)O)cn1[C@H](C(C)(C)C)C2 [Example 12, (S)-6-(tert-butyl)-9-(3-methoxypropoxy)-2-oxo-10-(quinolin-3-yl)-6,7-dihydro-2H-pyrido[2,1-a]isoquinoline-3-carboxylic Acid]?
**A.** CC50 at 3 days [1]: > 25000 nM; EC50 [2]: < 100 nM

**Q.** Which results are given for COCCCOc1cc2c(cc1-c1c(C)oc3ccccc13)-c1cc(=O)c(C(=O)O)cn1[C@H](C(C)(C)C)C2 [Example 21, (S)-6-(tert-butyl)-9-(3-methoxypropoxy)-10-(2-methylbenzofuran-3-yl)-2-oxo-6,7-dihydro-2H-pyrido[2,1-a]isoquinoline-3-carboxylic Acid]?
**A.** CC50 at 3 days [1]: > 25000 nM; EC50 [2]: 100 to 1000 nM
